Earlier results in patent US20110052690A1, “PROCESS FOR MANUFACTURE OF A MEDICAMENT WITH GRANULATION AND PAN COATING” (priority 2008, published 2011).
Structures can show the parent of a compound that is named as a salt.

Details: plural daily dosing regime, compressed tablets

In the case of `COc1ccc(C(CN(C)C)C2(O)CCCCC2)cc1` (centres unmarked) [venlafaxine hydrochloride, 1-[(2-dimethylamino)-1-(4-methoxyphenyl)ethyl] cyclohexanol], the patients experiencing nausea is listed as “about forty five” and the “patients in whom vomiting occurs” value is listed as “about seventeen”.
